Measured values: patent US12158470B2, “Methods and compositions for live cell analysis of intracellular ATP” (Sartorius BioAnalytical Instruments, Inc., priority 2018, dated 2024)
Entries after “also recorded” stand apart in the source; their conditions may differ.

Experiments:
[1] = test system: receptor-positive breast cancer lines; experiment: Live cell ATP sensor imaging after compound treatment, receptor-positive breast cancer lines; assay type: cell-based
Procedure: (§1) Cancer cell lines stably expressing a genetically encoded, fluorescent ATP sensor or a control (non-ATP binding) sensor were generated. Cell lines were cultured in recommended media conditions except for studies evaluating the effects of the glutaminase-1 (GLS1) inhibitor CB-839, for which cells were adapted to RPMI supplemented with 10% FBS prior to experimentation. […] Cellular ATP levels were measured over the course of hours to days following compound treatment.
(§2) A live cell imaging approach was then utilized to evaluate the effect of cancer therapeutics on ATP levels in tumor cell lines, focusing primarily on compounds that target metabolic vulnerabilities. […] Quantification of phase confluence confirmed that sustained decreases in ATP were associated with enhanced antiproliferative efficacy compared to conditions under which recovery of ATP levels were observed.

[2] = test system: triple-negative breast cancer (TNBC) cell lines; experiment: Live cell ATP sensor imaging after compound treatment, TNBC cell lines; assay type: cell-based
Procedure: as §1, §2

O=C(Cc1cccc(OC(F)(F)F)c1)Nc1ccc(CCCCc2nnc(NC(=O)Cc3ccccn3)s2)nn1 [CB-839]
effect on ATP levels ([1]; receptor-positive cell lines, mono-culture): no change to more modest decreases in ATP
time to recovery of ATP levels ([1]; receptor-positive cells): ≤ 48 h
effect of co-culture on the ATP response ([1]; receptor-positive lines with CCD-1068Sk fibroblasts): unaffected by the presence of CCD-1068Sk fibroblasts
effect on ATP levels in co-culture ([2]; TNBC cultured on a monolayer of CCD-1068Sk fibroblasts): diminished effects on ATP levels; also recorded: attenuated by co-culture with CCD-1068Sk fibroblasts
effect on ATP levels ([2]; TNBC, mono-culture, three-day time course): rapid drop in ATP; also recorded: remained below that of vehicle-treated cells for the duration of the three-day time course; also recorded: prolonged ATP depletion
